Values of other authors as cited in patent US12201111B2, “Glyphosate formulations containing amidoalkylamine surfactants” (Monsanto Technology LLC, priority 2016, dated 2025).

Conditions: glyphosate in its acid form; 25° C.

In the case of `O=C(O)CNCP(=O)(O)O` [glyphosate, N-phosphonomethylglycine], the solubility in water is given as 1.16 % by weight.
